One experiment concerns MCF-7-Zellen. The experiment is described as follows: Cell cycle analysis by FACS in MCF-7 breast carcinoma cells. The format is cell-based, human. The following applies: peptide 10^-5M. The text has this: Die eine Versuchsanordnung beinhaltet Versuche mit der humanen intaktes Retinoblastomprotein enthaltenden Mammakarzinom-Zell-Linie MCF-7 bzw. der humanen defektes Retinoblastomprotein enthaltenden Osteosarkom-Zell-Linie SAOS-2. Man sät die Zellen zuerst in 12-well-Platten 100.000 (= Hunderttausend) Zellen/-well/ml RPMI oder DMEM/10% FCS) aus, läßt sie 24 Stunden adhärieren, […], und stimuliert sie dann entweder mit 10% FCS oder 10^-8 M IGF-1 oder 10^-6 M Insulin für 24 Stunden, wobei der Effekt der jeweils zugegebenen Peptide auf die jeweilige Stimulation, die ein Maß für die Zellteilungsrate ist, untersucht wird. Die Kontrollgruppe (G0/G1-synchronisierte Zellen) wird zum Zeitpunkt 0 nach der dreitägigen Hungerphase fixiert, die restlichen Zellen (+/- Peptid) werden nach 24 Stunden fixiert. Daraufhin werden die Zellen zwecks Zellzyklusanalyse im FACS analysiert. Analoge Methoden finden sich beispielsweise bei R. Fahraeus et al., Current Biology, 1996, Vol. 6, No. 1, pp 84-91 sowie bei L. Zhu et al., Genes & Development, 1993, Vol. 7, pp. 1111-1125.
For orientation: A flow cytometer gives signals particle by particle.

In the next experiment the test system is SAOS-2-Zellen. The experiment is described as follows: Cell cycle analysis by FACS in SAOS-2 osteosarcoma cells. The format is cell-based, human. To be noted: SAOS-2 stimulated with 10 % FCS; for G1-Phase / S-Phase: peptide 5 x 10^-5M. The text has this: Die eine Versuchsanordnung beinhaltet Versuche mit der humanen intaktes Retinoblastomprotein enthaltenden Mammakarzinom-Zell-Linie MCF-7 bzw. der humanen defektes Retinoblastomprotein enthaltenden Osteosarkom-Zell-Linie SAOS-2. Man sät die Zellen zuerst in 12-well-Platten 100.000 (= Hunderttausend) Zellen/-well/ml RPMI oder DMEM/10% FCS) aus, läßt sie 24 Stunden adhärieren, hungert sie anschließend 3 Tage in DMEM ohne FCS mit dem Zweck, die Zellen in der G0/G1-Phase zu synchronisieren, und stimuliert sie dann entweder mit 10% FCS oder 10^-8 M IGF-1 oder 10^-6 M Insulin für 24 Stunden, wobei der Effekt der jeweils zugegebenen Peptide auf die jeweilige Stimulation, die ein Maß für die Zellteilungsrate ist, untersucht wird. Die Kontrollgruppe (G0/G1-synchronisierte Zellen) wird zum Zeitpunkt 0 nach der dreitägigen Hungerphase fixiert, die restlichen Zellen (+/- Peptid) werden nach 24 Stunden fixiert. Daraufhin werden die Zellen zwecks Zellzyklusanalyse im FACS analysiert. Analoge Methoden finden sich beispielsweise bei R. Fahraeus et al., Current Biology, 1996, Vol. 6, No. 1, pp 84-91 sowie bei L. Zhu et al., Genes & Development, 1993, Vol. 7, pp. 1111-1125.

Where [1] appears, read: MCF-7 stimulated with IGF-1 10^-8M.
Where [2] appears, read: G0/G1-synchronised MCF-7 cells, serum-free.
The mark [3] stands for this setting: MCF-7 stimulated with Insulin 10^-6M.

Entries after “also recorded” stand apart in the source; their conditions may differ.

Turning to `CC(C)C[C@@H](NC(=O)[C@H](NC(=O)[C@H](N)CCCCN)C(C)C)C(=O)N[C@H](Cc1ccc(O)cc1)C(=O)N[C@H](Cc1ccccc1)C(=O)N[C@H](CCCCN)C(=O)NCC(=O)NCC(=O)NCC(=O)NCCCC[C@H](NC(=O)CNC(=O)CNC(=O)CNC(=O)[C@@H](CCCCN)NC(=O)[C@@H](Cc1ccccc1)NC(=O)[C@@H](Cc1ccc(O)cc1)NC(=O)[C@@H](CC(C)C)NC(=O)[C@H](NC(=O)[C@H](N)CCCCN)C(C)C)C(=O)N[C@H](CCCNC(=N)N)C(=O)NCC(=O)NCCCC[C@H](NC(=O)CNC(=O)[C@@H](CCCNC(=N)N)NC(=O)[C@H](CCCCNC(=O)CNC(=O)CNC(=O)CNC(=O)[C@@H](CCCCN)NC(=O)[C@@H](Cc1ccccc1)NC(=O)[C@@H](Cc1ccc(O)cc1)NC(=O)[C@@H](CC(C)C)NC(=O)[C@H](NC(=O)[C@H](N)CCCCN)C(C)C)NC(=O)CNC(=O)CNC(=O)CNC(=O)[C@@H](CCCCN)NC(=O)[C@@H](Cc1ccccc1)NC(=O)[C@@H](Cc1ccc(O)cc1)NC(=O)[C@@H](CC(C)C)NC(=O)[C@H](NC(=O)[C@H](N)CCCCN)C(C)C)C(=O)NCC(=O)O` (racemic) [P7s, NH2-[dK-dV-dL-dY-dF-dK-GGG ]4-[lK-dR-G]2-lK-G-COOH], in the experiment with MCF-7-Zellen (setting [1]), the G1-Phase entry is “Zunahme”, the G2/M-Phase result is given as “Zunahme”, the “Morphologie der behandelten Zellen” value is recorded as “entspricht der apoptotischer Zellen” and the S-Phase entry is on record as “Abnahme”.
With `CC[C@H](C)[C@H](NC(=O)[C@H](CCCCN)NC(=O)[C@@H](NC(=O)[C@H](CCC(N)=O)NC(=O)[C@H](CCCNC(=N)N)NC(=O)[C@@H](NC(=O)[C@H](CCCCN)NC(=O)[C@H](CCCCN)NC(=O)[C@H](Cc1ccc(O)cc1)NC(=O)[C@H](Cc1ccccc1)NC(=O)[C@@H](N)CC(C)C)C(C)C)[C@@H](C)CC)C(=O)N[C@@H](Cc1c[nH]c2ccccc12)C(=O)N[C@@H](Cc1ccccc1)C(=O)N[C@@H](CCC(N)=O)C(=O)N[C@@H](CC(N)=O)C(=O)N[C@@H](CCCNC(=N)N)C(=O)N[C@@H](CCCNC(=N)N)C(=O)N[C@@H](CCSC)C(=O)N[C@@H](CCCCN)C(=O)N[C@@H](Cc1c[nH]c2ccccc12)C(=O)N[C@@H](CCCCN)C(=O)N[C@@H](CCCCN)C(=O)O` [P6, NH2-LFYKKVRQIKIWFQNRRMKWKK-COOH], the values for the G1-Phase result with MCF-7-Zellen (setting [2]), in the experiment on MCF-7-Zellen (setting [1]) and in the experiment on SAOS-2-Zellen were “vermindert”, “Zunahme” and “Zunahme”, respectively. For the same molecule, the “Morphologie der behandelten Zellen” value in the experiment on MCF-7-Zellen (setting [2]) and in the experiment on MCF-7-Zellen (setting [1]) was “entspricht der apoptotischer Zellen” each time. Moreover, the S-Phase entry was “steigert” with MCF-7-Zellen (setting [2]), “Abnahme; also recorded: vermindern” in the experiment on MCF-7-Zellen (setting [1]), “vermindern” with MCF-7-Zellen (setting [3]) and “Abnahme” in the experiment with SAOS-2-Zellen.
In the case of “H-LFYKKVPKKKRKV-OH [P5, NH2-L-F-Y-K-K-V-P-K-K-K-R-K-V-COOH]”, the G1-Phase result with MCF-7-Zellen (setting [2]) is given as “vermindert”; in the experiment on SAOS-2-Zellen, “Zunahme”. Besides, the S-Phase entry is “steigert” in the experiment with MCF-7-Zellen (setting [2]), “vermindern” in the experiment with MCF-7-Zellen (setting [1]), “vermindern” with MCF-7-Zellen (setting [3]) and “Abnahme” in the experiment with SAOS-2-Zellen.
For the molecule “NH2-KVLYFKRQIKIWFQNRRMKWKK-COOH (H-KVLYFKRQIKIWFQNRRMKWKK-OH) [P8]”, in the experiment with MCF-7-Zellen (setting [1]), the G1-Phase result is listed as “Zunahme”, the G2/M-Phase entry was “Zunahme”, the “Morphologie der behandelten Zellen” value is “entspricht der apoptotischer Zellen” and the S-Phase result is listed as “Abnahme”.
Take Penetratin [reference compound]: the S-Phase entry with MCF-7-Zellen (setting [1]) and with MCF-7-Zellen (setting [3]) was “keinen Effekt” throughout. Further, the “Bremsen der Zellzyklusprogression von SAOS-2-Zellen” value in the experiment on SAOS-2-Zellen (Tab 2) was “nicht”.

The values are drawn from patent EP0902088A2, “Peptides with antiproliferative properties” (Radulescu, Razvan T., priority 1996, dated 1999).
